Measured values published in ChEMBL document CHEMBL5550214, “Expanding Structure-Activity Relationships of Human Urotensin II Peptide Analogues: A Proposed Key Role of the N-Terminal Region for Novel Urotensin II Receptor Modulators” (J Med Chem, 2024).
Activity calls are given as the source filed them. No cut-off for these calls is given here. Where a SMILES comes first, the peptide text is derived from it. Bridges are numbered along the chain shown (N, C = ends). [ ]: non-standard residue; d: D form. Dab = NCC[C@H](N)C(=O)O

Experiments:
[1] = biological target: T1, Urotensin-2 receptor (Homo sapiens) (UniProt Q9UKP6); assay: Modulation of human UTR stably expressed in HEK293 cells assessed as increase in Ca2+ level at 0.1 to 100 nM by Fura 2-AM dye based calcium mobilization assay; format: functional, cell-based; settings: dose 0.1-100 nM
T1 sequence (whole entry): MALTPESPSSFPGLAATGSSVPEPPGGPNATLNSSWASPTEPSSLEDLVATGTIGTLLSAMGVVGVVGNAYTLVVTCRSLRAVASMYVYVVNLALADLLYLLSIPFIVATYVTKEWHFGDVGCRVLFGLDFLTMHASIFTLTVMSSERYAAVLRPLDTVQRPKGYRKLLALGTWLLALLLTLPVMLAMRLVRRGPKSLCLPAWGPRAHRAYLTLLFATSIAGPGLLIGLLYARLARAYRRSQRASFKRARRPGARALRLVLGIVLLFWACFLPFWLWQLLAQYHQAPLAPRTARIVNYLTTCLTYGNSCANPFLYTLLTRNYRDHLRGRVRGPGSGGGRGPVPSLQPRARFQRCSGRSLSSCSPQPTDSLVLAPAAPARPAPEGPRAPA

Aortic ring [2] = assay: Induction of contraction in Albino Wistar rat aortic ring at 1 to 30 nM; format: functional, tissue-based; settings: Aorta, dose 1-30 nM
Aortic ring [3] = assay: Induction of contraction in Albino Wistar rat aortic ring assessed as Emax of hU-II at 0.1 uM incubated for 30 mins in presence of hU-II (reference value: 224.8 +/- 11.71 dyne/mg); format: functional, Aorta; settings: 0.5 h
Aortic ring [4] = assay: Induction of contraction in Albino Wistar rat aortic ring assessed as Emax of hU-II at 10 uM incubated for 30 mins in presence of hU-II (reference value: 238.4 +/- 9.53 dyne/mg); format: functional, Aorta; settings: 0.5 h
Aortic ring [5] = assay: Induction of contraction in Albino Wistar rat aortic ring assessed as Emax of hU-II at 1 uM incubated for 30 mins in presence of hU-II (reference value: 214.5 +/- 10.51 dyne/mg); format: functional, Aorta; settings: 0.5 h
Aortic ring [6] = assay: Induction of contraction in Albino Wistar rat aortic ring assessed as Emax of U-II(4-11) at 0.1 uM incubated for 30 mins in presence of U-II(4-11) (reference value: 159.8 +/- 7.39 dyne/mg); format: functional, Aorta; settings: 0.5 h
Aortic ring [7] = assay: Induction of contraction in Albino Wistar rat aortic ring assessed as Emax of U-II(4-11) at 1 uM incubated for 30 mins in presence of U-II(4-11) (reference value: 159.8 +/- 7.3 dyne/mg); format: functional, Aorta; settings: 0.5 h
Aortic ring [8] = assay: Induction of contraction in Albino Wistar rat aortic ring assessed as Emax of U-II(4-11) at 10 uM incubated for 30 mins in presence of U-II(4-11) (reference value: 152.4 +/- 5.1 dyne/mg); format: functional, Aorta; settings: 0.5 h
Aortic ring [9] = assay: Induction of contraction in Albino Wistar rat aortic ring assessed as Emax of [Ala1]U-II at 0.1 uM incubated for 30 mins in presence of [Ala1]U-II (reference value: 308.1 +/- 21.4 dyne/mg); format: functional, Aorta; settings: 0.5 h
Aortic ring [10] = assay: Induction of contraction in Albino Wistar rat aortic ring assessed as Emax of [Ala1]U-II at 10 uM incubated for 30 mins in presence of [Ala1]U-II (reference value: 391.6 +/- 38.83 dyne/mg); format: functional, Aorta; settings: 0.5 h
Aortic ring [11] = assay: Induction of contraction in Albino Wistar rat aortic ring assessed as Emax of [Ala1]U-II at 1 uM incubated for 30 mins in presence of [Ala1]U-II (reference value: 153.3 +/- 10.75 dyne/mg); format: functional, Aorta; settings: 0.5 h
Urotensin-2 receptor = biological target: T2, Urotensin-2 receptor (Homo sapiens, UniProt Q9UKP6); assay: Modulation of human UTR stably expressed in HEK293 cells assessed as increase in Ca2+ level by Fura 2-AM dye based calcium mobilization assay; format: functional, cell-based
T2 sequence (Q9UKP6 whole entry): T1 sequence (whole entry)

Aortic ring [12] = assay: Induction of contraction in Albino Wistar rat aortic ring at 1 to 30 nM relative to control; format: functional, Aorta; settings: dose 1-30 nM
Aortic ring [13] = assay: Induction of contraction in Albino Wistar rat aortic ring assessed as Emax of hU-II at 1 uM incubated for 30 mins in presence of hU-II (reference value: 224.8 +/- 11.71 dyne/mg); format: functional, Aorta; settings: 0.5 h
Aortic ring [14] = assay: Induction of contraction in Albino Wistar rat aortic ring assessed as Emax of hU-II at 0.1 uM incubated for 30 mins in presence of hU-II (reference value: 251.4 +/- 15.43 dyne/mg); format: functional, Aorta; settings: 0.5 h
Aortic ring [15] = assay: Induction of contraction in Albino Wistar rat aortic ring assessed as Emax of hU-II at 10 uM incubated for 30 mins in presence of hU-II (reference value: 214.5 +/- 10.51 dyne/mg); format: functional, Aorta; settings: 0.5 h
Aortic ring [16] = assay: Induction of contraction in Albino Wistar rat aortic ring assessed as Emax of [Ala1]U-II at 10 uM incubated for 30 mins in presence of [Ala1]U-II (reference value: 308.1 +/- 21.4 dyne/mg); format: functional, Aorta; settings: 0.5 h
Aortic ring [17] = assay: Induction of contraction in Albino Wistar rat aortic ring assessed as Emax of [Ala1]U-II at 1 uM incubated for 30 mins in presence of [Ala1]U-II (reference value: 220.3 +/- 17.48 dyne/mg); format: functional, Aorta; settings: 0.5 h
Aortic ring [18] = assay: Induction of contraction in Albino Wistar rat aortic ring assessed as Emax of [Ala1]U-II at 0.1 uM incubated for 30 mins in presence of [Ala1]U-II (reference value: 323 +/- 30.45 dyne/mg); format: functional, Aorta; settings: 0.5 h
Aortic ring [19] = assay: Induction of contraction in Albino Wistar rat aortic ring assessed as Emax of hU-II at 10 uM incubated for 30 mins in presence of hU-II (reference value: 224.8 +/- 11.71 dyne/mg); format: functional, Aorta; settings: 0.5 h
Aortic ring [20] = assay: Induction of contraction in Albino Wistar rat aortic ring assessed as Emax of hU-II at 1 uM incubated for 30 mins in presence of hU-II (reference value: 251.4 +/- 15.43 dyne/mg); format: functional, Aorta; settings: 0.5 h
Aortic ring [21] = assay: Induction of contraction in Albino Wistar rat aortic ring assessed as Emax of hU-II at 0.1 uM incubated for 30 mins in presence of hU-II (reference value: 279.9 +/- 11.02 dyne/mg); format: functional, Aorta; settings: 0.5 h

Structure (SMILES)	Activity ([1]; filed as modulator)	Activity (Aortic ring [2])	Emax (Aortic ring [6]) [dyn/mg]	Emax (Aortic ring [7]) [dyn/mg]	Emax (Aortic ring [8]) [dyn/mg]	Emax (Aortic ring [16]) [dyn/mg]	Emax (Aortic ring [17]) [dyn/mg]	Emax (Aortic ring [18]) [dyn/mg]	also measured
CC(C)[C@H](NC(=O)[C@@H]1CSSC(C)(C)[C@H](NC(=O)[C@H](CC(=O)O)NC(=O)[C@@H]2CCCN2C(=O)[C@@H](NC(=O)[C@@H](N)CCC(=O)O)[C@@H](C)O)C(=O)N[C@@H](Cc2ccccc2)C(=O)N[C@H](Cc2c[nH]c3ccccc23)C(=O)N[C@@H](CCCN)C(=O)N[C@@H](Cc2ccc(O)cc2)C(=O)N1)C(=O)O	Active	inactive	223.4	166.6	231	–	–	–	Emax (Aortic ring [3]): 251.6 dyn/mg; Emax (Aortic ring [4]): 327 dyn/mg; Emax (Aortic ring [5]): 143.5 dyn/mg; Emax (Aortic ring [9]): 216.19 dyn/mg; Emax (Aortic ring [10]): 727.7 dyn/mg; Emax (Aortic ring [11]): 146.8 dyn/mg
CC(C)[C@H](NC(=O)[C@@H]1CSSC[C@H](NC(=O)[C@@H](N)CC(=O)O)C(=O)N[C@@H](Cc2ccccc2)C(=O)N[C@@H](Cc2c[nH]c3ccccc23)C(=O)N[C@@H](CCCCN)C(=O)N[C@@H](Cc2ccc(O)cc2)C(=O)N1)C(=O)O (H-DCFWKYCV-OH; disulfide 2-7)	–	–	–	–	–	–	–	–	EC50 (Urotensin-2 receptor): 1.2 nM
CC(C)[C@H](NC(=O)[C@@H]1CSSC[C@H](NC(=O)[C@H](CC(=O)O)NC(=O)[C@@H]2CCCN2C(=O)[C@@H](NC(=O)[C@@H](N)CCN)[C@@H](C)O)C(=O)N[C@@H](Cc2ccccc2)C(=O)N[C@@H](Cc2c[nH]c3ccccc23)C(=O)N[C@@H](CCCCN)C(=O)N[C@@H](Cc2ccc(O)cc2)C(=O)N1)C(=O)O (H-[Dab]TPDCFWKYCV-OH; disulfide 5-10)	–	–	–	–	–	–	–	–	Emax (Aortic ring [12]): 97.78 dyn/mg
CC(C)[C@H](NC(=O)[C@@H]1CSSC(C)(C)[C@H](NC(=O)[C@H](CC(=O)O)NC(=O)[C@@H]2CCCN2C(=O)[C@@H](NC(=O)[C@@H](N)CCC(N)=O)[C@@H](C)O)C(=O)N[C@@H](Cc2ccccc2)C(=O)N[C@H](Cc2c[nH]c3ccccc23)C(=O)N[C@@H](CCCN)C(=O)N[C@@H](Cc2ccc(O)cc2)C(=O)N1)C(=O)O	Active	inactive	265.4	215.7	164.2	218.8	295.9	46.4	Emax (Aortic ring [13]): 336.6 dyn/mg; Emax (Aortic ring [14]): 507.7 dyn/mg; Emax (Aortic ring [15]): 245.7 dyn/mg
CC(C)[C@H](NC(=O)[C@@H]1CSSC(C)(C)[C@H](NC(=O)[C@H](CC(=O)O)NC(=O)[C@@H]2CCCN2C(=O)[C@@H](NC(=O)[C@@H](N)CCN)[C@@H](C)O)C(=O)N[C@@H](Cc2ccccc2)C(=O)N[C@H](Cc2c[nH]c3ccccc23)C(=O)N[C@@H](CCCN)C(=O)N[C@@H](Cc2ccc(O)cc2)C(=O)N1)C(=O)O	–	inactive	98.9	166.4	119.5	141.2	99.6	38.23	Activity [1]: inactive; Emax (Aortic ring [19]): 208.6 dyn/mg; Emax (Aortic ring [20]): 397 dyn/mg; Emax (Aortic ring [21]): 164 dyn/mg
